Columns and labels:
[1] = system: MCF7; experiment: Antiproliferative activity against human MCF7 cells incubated for 5 days by CCK-8 assay; conditions: MCF7, 120 h
[2] = target: T1, Serine/threonine-protein kinase PLK4 (Homo sapiens, UniProt O00444); experiment: Inhibition of PLK4 (unknown origin) incubated for 1 hr in presence of kinase tracer 236 by FRET assay
T1 sequence (O00444 whole entry): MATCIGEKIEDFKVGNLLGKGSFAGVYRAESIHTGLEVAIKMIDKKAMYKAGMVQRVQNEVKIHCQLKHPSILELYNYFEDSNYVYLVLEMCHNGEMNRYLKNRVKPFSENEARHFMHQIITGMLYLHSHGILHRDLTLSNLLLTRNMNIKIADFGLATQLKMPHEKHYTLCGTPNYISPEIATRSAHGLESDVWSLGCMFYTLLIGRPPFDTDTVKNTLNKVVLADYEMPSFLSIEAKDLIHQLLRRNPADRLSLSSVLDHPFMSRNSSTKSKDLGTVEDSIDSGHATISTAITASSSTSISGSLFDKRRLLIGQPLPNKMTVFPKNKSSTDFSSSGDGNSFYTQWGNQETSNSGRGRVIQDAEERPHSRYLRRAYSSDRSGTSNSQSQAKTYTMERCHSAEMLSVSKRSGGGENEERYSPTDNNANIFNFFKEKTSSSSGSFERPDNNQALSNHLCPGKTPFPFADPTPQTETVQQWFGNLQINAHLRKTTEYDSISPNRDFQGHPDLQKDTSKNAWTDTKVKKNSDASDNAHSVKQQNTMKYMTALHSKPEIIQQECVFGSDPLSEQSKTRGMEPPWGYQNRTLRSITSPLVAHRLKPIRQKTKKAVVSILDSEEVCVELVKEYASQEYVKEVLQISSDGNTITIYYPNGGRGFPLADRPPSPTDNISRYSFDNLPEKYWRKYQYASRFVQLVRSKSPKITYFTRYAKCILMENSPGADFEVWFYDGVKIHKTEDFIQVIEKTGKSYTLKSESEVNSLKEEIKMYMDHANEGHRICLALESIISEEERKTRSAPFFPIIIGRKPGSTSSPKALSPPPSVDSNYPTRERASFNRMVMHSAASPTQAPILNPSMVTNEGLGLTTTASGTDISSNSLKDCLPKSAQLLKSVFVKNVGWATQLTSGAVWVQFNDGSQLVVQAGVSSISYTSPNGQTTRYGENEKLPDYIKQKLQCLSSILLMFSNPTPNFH

[3] = target: T2, Protein cereblon/Serine/threonine-protein kinase PLK4 (Homo sapiens, UniProt O00444+Q96SW2); experiment: Protac activity at CRBN/PLK4 in human MCF7 cells at 0.1 uM incubated for 48 hrs by Western blot analysis; type: cell-based
[4] = target: T2, Protein cereblon/Serine/threonine-protein kinase PLK4; experiment: Protac activity at CRBN/PLK4 in human MCF7 cells at 1 uM incubated for 48 hrs by Western blot analysis; type: cell-based
[5] = target: T2, Protein cereblon/Serine/threonine-protein kinase PLK4; experiment: Protac activity at CRBN/PLK4 in human MCF7 cells at 10 uM incubated for 48 hrs by Western blot analysis; type: cell-based
[6] = system: CYP2D6; experiment: Inhibition of CYP2D6 in human liver microsomes at 10 uM using quinidine as substrate preincubated for 10 mins followed by NADPH regenerating system addition and measured after 15 mins by LC-MS/MS analysis relative to control; type: ADME, Microsome; conditions: time 25 min
[7] = Stability in human plasma assessed as half life at 100 uM after 120 mins by LC-MS/MS analysis; type: ADME, cell-free

T2 sequence (Q96SW2 whole entry, looked up, one chain of several): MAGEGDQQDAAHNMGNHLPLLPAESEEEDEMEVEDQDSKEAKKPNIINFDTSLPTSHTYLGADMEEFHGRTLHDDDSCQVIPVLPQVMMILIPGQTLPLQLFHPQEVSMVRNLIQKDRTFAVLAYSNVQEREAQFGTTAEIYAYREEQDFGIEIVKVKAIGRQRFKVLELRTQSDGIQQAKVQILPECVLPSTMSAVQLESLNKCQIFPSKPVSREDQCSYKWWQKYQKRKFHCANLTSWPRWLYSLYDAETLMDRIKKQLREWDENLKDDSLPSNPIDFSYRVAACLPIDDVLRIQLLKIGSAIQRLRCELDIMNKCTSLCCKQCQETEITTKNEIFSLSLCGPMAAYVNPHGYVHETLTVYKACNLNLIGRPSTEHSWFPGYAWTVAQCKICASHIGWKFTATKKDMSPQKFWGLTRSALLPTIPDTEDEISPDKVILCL

Compound	IC50 [1] [nM]	IC50 [2] [nM]	Activity [3] [%]	Activity [4] [%]	Activity [5] [%]	inhibition at 0.25 h, 10 µM [6] [%]	half-life at 100 µM [7] [min]
Cc1cc(Nc2nc(NCc3ccc(F)cc3F)nc3c2cnn3C2CCN(C(=O)CC3CN(c4ccc5c(c4)C(=O)N(C4CCC(=O)NC4=O)C5=O)C3)CC2)n[nH]1 (stereo not drawn)	510	12.9	47.7	70.4	–	–	–
Cc1cc(Nc2nc(NCc3ccc(F)cc3F)nc3c2cnn3C2CCN(C(=O)CC3CCN(c4ccc5c(c4)C(=O)N(C4CCC(=O)NC4=O)C5=O)CC3)CC2)n[nH]1 (stereo not drawn)	2460	19.1	46.2	51	–	–	–
Cc1cc(Nc2nc(NCc3ccc(F)cc3F)nc3c2cnn3C2CCN(CC3CC4(C3)CN(c3ccc5c(c3)C(=O)N(C3CCC(=O)NC3=O)C5=O)C4)CC2)n[nH]1 (stereo not drawn)	–	42.3	4.12	6.07	–	–	–
Cc1cc(Nc2nc(NCc3ccc(F)cc3F)nc3c2cnn3C2CCN(Cc3ccc(C4CCN(c5ccc6c(c5)C(=O)N(C5CCC(=O)NC5=O)C6=O)CC4)cc3)CC2)n[nH]1 (stereo not drawn)	–	106	1.05	3.11	7.32	–	–
Cc1cc(Nc2nc(NCc3ccc(F)cc3F)nc3c2cnn3C2CCN(C(=O)COCCOCCOc3ccc4c(c3)C(=O)N(C3CCC(=O)NC3=O)C4=O)CC2)n[nH]1 (stereo not drawn)	–	9.4	24.6	30.3	38.5	–	–
Cc1cc(Nc2nc(NCc3ccc(F)cc3F)nc3c2cnn3C2CCN(C(=O)CC3CC4(C3)CN(c3ccc5c(c3)C(=O)N(C3CCC(=O)NC3=O)C5=O)C4)CC2)n[nH]1 (stereo not drawn)	–	61.1	1.84	5.49	24.3	–	–
Cc1cc(Nc2nc(NCc3ccc(F)cc3F)nc3c2cnn3C2CCN(C(=O)Cc3ccc(N4CCN(c5ccc6c(c5)C(=O)N(C5CCC(=O)NC5=O)C6=O)CC4)cc3)CC2)n[nH]1 (stereo not drawn)	6980	216	40.1	57.6	–	–	–
Cc1cc(Nc2nc(NCc3ccc(F)cc3F)nc3c2cnn3C2CCN(CC3CCN(c4ccc5c(c4)C(=O)N(C4CCC(=O)NC4=O)C5=O)CC3)CC2)n[nH]1 (stereo not drawn)	–	3.1	2.16	8.64	19.2	–	–
Cc1cc(Nc2nc(NCc3ccc(F)cc3F)nc3c2cnn3C2CCN(CC3CCN(c4ccc5c(c4)C(=O)N(C4CCC(=O)NC4=O)C5=O)C3)CC2)n[nH]1 (stereo not drawn)	–	13.6	3.54	8.91	26.1	–	–
Cc1cc(Nc2nc(NCc3ccc(F)cc3F)nc3c2cnn3C2CCNCC2)n[nH]1	650	–	–	–	–	–	–
C=C[C@H]1C[N@@]2CC[C@H]1C[C@@H]2[C@@H](O)c1ccnc2ccc(OC)cc12 [QUINIDINE]	–	–	–	–	–	95.9	–
Cc1cc(Nc2nc(NCc3ccc(F)cc3F)nc3c2cnn3C2CCN(C(=O)c3ccc(C4CCN(c5ccc6c(c5)C(=O)N(C5CCC(=O)NC5=O)C6=O)CC4)cc3)CC2)n[nH]1 (stereo not drawn)	2500	82.7	50.5	61.4	69.9	–	–
Cc1cc(Nc2nc(NCc3ccc(F)cc3F)nc3c2cnn3C2CCN(C(=O)CC3CCN(c4ccc5c(c4)C(=O)N(C4CCC(=O)NC4=O)C5=O)C3)CC2)n[nH]1 (stereo not drawn)	–	8.1	39.2	48.9	–	–	–
Cc1cc(Nc2nc(NCc3ccc(F)cc3F)nc3c2cnn3C2CCN(C(=O)C3CC4(C3)CN(c3ccc5c(c3)C(=O)N(C3CCC(=O)NC3=O)C5=O)C4)CC2)n[nH]1 (stereo not drawn)	–	75.2	0.28	2.39	4.01	–	–
Cc1cc(Nc2nc(NCc3ccc(F)cc3F)nc3c2cnn3C2CCN(C(=O)C3CN(c4ccc5c(c4)C(=O)N(C4CCC(=O)NC4=O)C5=O)C3)CC2)n[nH]1 (stereo not drawn)	250	18.9	46.3	52.2	73.5	–	–
CC(C)[N+](C)(CCOC(=O)C1c2ccccc2Oc2ccccc21)C(C)C.[Br-] [PROPANTHELINE BROMIDE]	–	–	–	–	–	–	19.8
Cc1cc(Nc2nc(NCc3ccc(F)cc3F)nc3c2cnn3C2CCN(C(=O)C3CCN(c4ccc5c(c4)C(=O)N(C4CCC(=O)NC4=O)C5=O)C3)CC2)n[nH]1 (stereo not drawn)	260	5.5	36.7	56.1	66.8	–	–
Cc1cc(Nc2nc(NCc3ccc(F)cc3F)nc3c2cnn3C2CCN(CC3CN(c4ccc5c(c4)C(=O)N(C4CCC(=O)NC4=O)C5=O)C3)CC2)n[nH]1 (stereo not drawn)	–	10.1	2.33	31.1	42.2	–	–

Second part, the compound after the results:

IC50 [1] [nM]	IC50 [2] [nM]	Activity [3] [%]	Activity [4] [%]	Activity [5] [%]	inhibition at 0.25 h, 10 µM [6] [%]	half-life at 100 µM [7] [min]	Compound
–	19.6	20.2	46.8	58.1	–	–	Cc1cc(Nc2nc(NCc3ccc(F)cc3F)nc3c2cnn3C2CCN(C(=O)CCCCCCCCCCCCCCCCCOc3ccc4c(c3)C(=O)N(C3CCC(=O)NC3=O)C4=O)CC2)n[nH]1 (stereo not drawn)
–	3.6	5.68	13.4	19.7	–	–	Cc1cc(Nc2nc(NCc3ccc(F)cc3F)nc3c2cnn3C2CCN(C(=O)CCOCCOc3ccc4c(c3)C(=O)N(C3CCC(=O)NC3=O)C4=O)CC2)n[nH]1 (stereo not drawn)
–	5.6	25.3	28.5	43.9	–	–	Cc1cc(Nc2nc(NCc3ccc(F)cc3F)nc3c2cnn3C2CCN(C(=O)COc3ccc4c(c3)C(=O)N(C3CCC(=O)NC3=O)C4=O)CC2)n[nH]1 (stereo not drawn)
220	9.1	31.7	55.3	68.9	–	–	Cc1cc(Nc2nc(NCc3ccc(F)cc3F)nc3c2cnn3C2CCN(C(=O)CCCCCCOc3ccc4c(c3)C(=O)N(C3CCC(=O)NC3=O)C4=O)CC2)n[nH]1 (stereo not drawn)
–	154	11.6	22.8	35.9	–	–	Cc1cc(Nc2nc(NCc3ccc(F)cc3F)nc3c2cnn3C2CCN(C(=O)CCCCCCCCCCCCCOc3ccc4c(c3)C(=O)N(C3CCC(=O)NC3=O)C4=O)CC2)n[nH]1 (stereo not drawn)
–	1.9	2.13	5.34	28.3	–	–	Cc1cc(Nc2nc(NCc3ccc(F)cc3F)nc3c2cnn3C2CCN(C(=O)COCCOc3ccc4c(c3)C(=O)N(C3CCC(=O)NC3=O)C4=O)CC2)n[nH]1 (stereo not drawn)
–	5.5	31.3	46.7	57.7	–	–	Cc1cc(Nc2nc(NCc3ccc(F)cc3F)nc3c2cnn3C2CCN(C(=O)CCCCCOc3ccc4c(c3)C(=O)N(C3CCC(=O)NC3=O)C4=O)CC2)n[nH]1 (stereo not drawn)
–	1080	2.81	103	23.6	–	–	Cc1cc(Nc2nc(NCc3ccc(F)cc3F)nc3c2cnn3C2CCN(C(=O)CCCCCCCCCOc3ccc4c(c3)C(=O)N(C3CCC(=O)NC3=O)C4=O)CC2)n[nH]1 (stereo not drawn)
–	121	24.1	37.8	43.5	–	–	Cc1cc(Nc2nc(NCc3ccc(F)cc3F)nc3c2cnn3C2CCN(C(=O)CCCCCCCCCCCCCCCOc3ccc4c(c3)C(=O)N(C3CCC(=O)NC3=O)C4=O)CC2)n[nH]1 (stereo not drawn)
–	37.9	29.1	46.4	52.2	–	–	Cc1cc(Nc2nc(NCc3ccc(F)cc3F)nc3c2cnn3C2CCN(C(=O)CCOCCOCCCOc3ccc4c(c3)C(=O)N(C3CCC(=O)NC3=O)C4=O)CC2)n[nH]1 (stereo not drawn)
–	42.2	30.2	38.9	50.3	–	–	Cc1cc(Nc2nc(NCc3ccc(F)cc3F)nc3c2cnn3C2CCN(C(=O)CCCCCCCOc3ccc4c(c3)C(=O)N(C3CCC(=O)NC3=O)C4=O)CC2)n[nH]1 (stereo not drawn)
–	531	4.29	13.2	21.7	–	–	Cc1cc(Nc2nc(NCc3ccc(F)cc3F)nc3c2cnn3C2CCN(C(=O)CCCCCCCCCCCOc3ccc4c(c3)C(=O)N(C3CCC(=O)NC3=O)C4=O)CC2)n[nH]1 (stereo not drawn)
260	2.6	44.1	56.8	63.6	–	–	Cc1cc(Nc2nc(NCc3ccc(F)cc3F)nc3c2cnn3C2CCN(C(=O)CCCCOc3ccc4c(c3)C(=O)N(C3CCC(=O)NC3=O)C4=O)CC2)n[nH]1 (stereo not drawn)
